Common to all, as to assay type: cell-based, human
The test system of one test is T4302 CD133+ cells. Put plainly: Trypan blue exclusion assay. As to conditions: two days after 3-Gy radiation. How it is done: (§1) FIG. 2 is a series of graphs illustrating that γ-secretase inhibitors enhance radiation-induced cell death in glioma stem cells. (A) T4302 CD 133+ cells were pre-treated with DAPT or L685,458 for 4 hours and irradiated at 3 Gy. Percentage of dead cells was determined by trypan blue exclusion assay at 48 hours after radiation exposure. (B) T4302 CD 133+ cells were treated with GSIs ±radiation as indicated. Cells were then plated at 3000 cells per well in 96-well plates. Relative caspase 3/7 activities were determined by normalizing caspase activities to the corresponding cell titers. (C) T4302 CD 133+ cells were treated as described in FIG. 2A. 24 or 48 hours after radiation exposure, cells were labeled with FITC-conjugated Annexin V staining kit (BD Sciences) according to manufacturer's instructions and analyzed by flow cytometry. (D) T4302 CD 133+ cells were pre-treated with 2 μM DAPT for 4 hours, and were left unirradiated or irradiated at 1, 2 or 3 Gy. Relative caspase 3/7 activities were determined at 72 hours after radiation. (E) T4302 CD133+ cells were pre-treated with DAPT at indicated concentrations for 4 hours and irradiated at 3 Gy. Relative caspase activities were determined at 48 or 72 hours after radiation. *: p<0.01 by Student's t-test; #: p<0.01 by one-way ANOVA.

Test [1] relates to T4302 CD133+ glioma stem cells. The test is described as follows: Growth curve, CellTiter-Glo Luminescent Cell Viability Assay. To be noted: without radiation treatment, day five; 2 μM DAPT or 0.5 μM L685,458. The source says: FIG. 1 is a series of graphs illustrating that γ-secretase inhibitors reduce cell growth and clonogenic survival of glioma stem cells following radiation. (A) T4302 CD133+ glioma stem cells were transfected with a Notch-responsive luciferase reporter (RBP-JK reporter) pre-mixed with the vector directing constitutive expression of Renilla luciferase. Cells were left unirradiated or irradiated at 3 Gy, and were then collected to measure luciferase activities at time points as indicated. […] The relative mRNA levels of Hes2 were determined by quantitative real-time PCR at the time points as indicated. […] Total viable cell numbers were then determined by the CellTiter-Glo Luminescent Cell Viability Assay (Promega) for the following five days. […] Cells were then plated to form neurospheres, and the surviving fractions were determined as described in methods. […] (F,G) Neurosphere formation of T3359 and T4105 CD 133+ cells treated with GSIs alone, 3-Gy radiation alone, or the combination was determined as described in FIG. 1E. *: p<0.05 by Student's t-test; #: p<0.001 by one-way ANOVA.
Growth Curve, caspase 3/7 assay, and clonogenic survival assay. […] Cell number was measured for 5 days using the CellTiter-Glo assay kit (Promega, Madison, […].). […]

In a further test the test system is CD133+ glioma stem cells. The test is described as follows: Caspase-Glo 3/7 assay, relative caspase 3/7 activities. How it is done: as §1, with “(D) T4302 CD 133+ cells were pre-treated with 2 μM DAPT for 4 hours, and were left unirradiated or irradiated at 1, 2 or 3 Gy.” left out
The caspase activities at 48 or 72 hours after radiation were measured using the Caspase-Glo 3/7 assay (Promega) according to the manufacturer's instructions. The caspase activities were normalized to the corresponding cell titers to obtain the relative caspase 3/7 activities.

The results in this text go back to patent publication US20110059114A1, “Compositions and Methods for the Treatment of Radioresistant Glioma Stem Cells” (DUKE UNIVERSITY, priority 2009, published 2011).

In the test on T4302 CD133+ cells, `CC(NC(=O)Cc1cc(F)cc(F)c1)C(=O)NC(C(=O)OC(C)(C)C)c1ccccc1` [DAPT, N-[N-(3,5-Difluorophenacetyl-L-alanyl)]-S-phenylglycine t-Butyl Ester] yielded a dead cells of 60%. For the same molecule, the “sham-treated cells more than GSI-treated cells (total cell number)” value in test [1] turned out to be 25%. The radiosensitizing effect entry in the test on CD133+ glioma stem cells (200 nM DAPT, 3 Gy) is reported as “still being effective”. The radiation-induced cell death result in the test with CD133+ glioma stem cells (2 μM DAPT added 24 hours after radiation, T4105 or T4302 CD133+ cells) is given as “increased radiation-induced cell death”. Further, in the test on CD133+ glioma stem cells (2 μM, radiation 1, 2 or 3 Gy, 72 hours), the “radiation-induced cell death (caspase 3/7)” value is listed as “enhanced radiation-induced cell death”. Besides, the “radiosensitizing effects, dependence on concentration” value in the test with CD133+ glioma stem cells (3 Gy, 48 or 72 hours after radiation) is “concentration-dependent effect”. Further, the “radiation-induced cell death of cells infected with control lentivirus” value in the test with CD133+ glioma stem cells (irradiated, T4302 CD133+) was “sensitive to DAPT”.
